Measurements taken from US9427415B2, “Methods and compositions for modifying sensorial perception” (The Procter & Gamble Company, priority 2014, dated 2016).
Like-named read-outs stand apart in the source and are kept apart here.

What was measured:
[1] = molecular target: T1, human TRPA1 (Homo sapiens, UniProt O75762, K186N/R3C/R58T); test: Intracellular calcium (Fluo-4, FLIPR) activation of TRPA1 cells by GRAS compounds; assay type: cell-based; details: for activation at 1000 µM / activation at 100 µM: read-out: A1 activation, % of agonist value;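 as to all read-outs here: TRPA1-expressing cells, fluorescence read on a FLIPR Tetra (ex 488 nm, em 514 nm) every 2 s for 10 min after compound addition, baseline subtracted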
T1 construct: expressed in transfected cells; pcDNA3 control cells
T1 sequence (O75762 whole entry R3C/R58T/K186N): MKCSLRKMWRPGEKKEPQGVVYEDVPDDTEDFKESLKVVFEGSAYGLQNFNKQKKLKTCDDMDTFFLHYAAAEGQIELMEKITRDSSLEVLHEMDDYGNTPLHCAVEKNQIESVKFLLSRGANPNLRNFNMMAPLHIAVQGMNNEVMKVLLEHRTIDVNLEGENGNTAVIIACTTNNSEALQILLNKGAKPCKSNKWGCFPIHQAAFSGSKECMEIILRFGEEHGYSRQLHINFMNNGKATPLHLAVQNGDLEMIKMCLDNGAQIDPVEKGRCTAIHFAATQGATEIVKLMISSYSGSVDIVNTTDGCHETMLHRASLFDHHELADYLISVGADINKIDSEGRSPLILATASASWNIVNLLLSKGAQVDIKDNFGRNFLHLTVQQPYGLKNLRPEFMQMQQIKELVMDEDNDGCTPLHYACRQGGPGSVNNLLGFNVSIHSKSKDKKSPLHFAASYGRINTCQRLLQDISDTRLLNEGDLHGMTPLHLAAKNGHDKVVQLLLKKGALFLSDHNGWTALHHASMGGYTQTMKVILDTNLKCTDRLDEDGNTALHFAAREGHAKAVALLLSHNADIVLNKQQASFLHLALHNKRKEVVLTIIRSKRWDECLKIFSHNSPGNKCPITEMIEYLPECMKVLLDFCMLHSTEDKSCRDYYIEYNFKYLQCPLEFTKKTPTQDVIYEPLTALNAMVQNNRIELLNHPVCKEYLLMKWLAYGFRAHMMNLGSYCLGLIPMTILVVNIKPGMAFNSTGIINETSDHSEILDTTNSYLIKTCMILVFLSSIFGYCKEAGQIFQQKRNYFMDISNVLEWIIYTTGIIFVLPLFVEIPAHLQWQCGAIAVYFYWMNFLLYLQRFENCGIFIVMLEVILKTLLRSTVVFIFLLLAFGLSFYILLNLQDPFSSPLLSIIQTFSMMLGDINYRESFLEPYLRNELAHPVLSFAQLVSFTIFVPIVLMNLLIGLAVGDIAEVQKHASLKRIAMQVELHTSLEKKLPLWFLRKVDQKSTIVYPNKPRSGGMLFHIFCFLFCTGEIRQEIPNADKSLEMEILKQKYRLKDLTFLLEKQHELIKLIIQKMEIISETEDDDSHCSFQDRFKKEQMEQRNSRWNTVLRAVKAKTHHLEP

[2] = system: TRPA1V1; test: Intracellular calcium (Fluo-4, FLIPR) activation of TRPA1V1 cells (co-expressing TRPA1 and TRPV1) by GRAS compounds; assay type: cell-based, human;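 also: HEK293 cells co-expressing TRPA1 and TRPV1, fluorescence read at 488/514 nm after baseline subtraction, recorded every 2 s over 10 min, ionomycin 10 µM and buffer as controls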
Experimental: TRPV1, TRPA1, TRPA1V1 and pcDNA3 cells were grown in 15 mL growth medium [high glucose DMEM (Dulbecco's modification of Eagle's medium) supplemented with 10% FBS (fetal bovine serum), 100 μg/mL penicillin/streptomycin, 100 μg/mL G418] in a 75 cm^2 flask for 3 days in a mammalian cell culture incubator at 33° C. and 5% CO2. TRP Cells were detached with 8 mL of PBS (without calcium or magnesium); for pcDNA3 cells, trypsin was used for releasing the cells. The detached cells were spun at low speed (800-900 rpm for 3 min) to pellet the cells. […] The cells were washed once with 45 mL assay buffer (1×HBSS, 20 mM HEPES) by low speed centrifugation (800-900 rpm for 3 min) and resuspended in 11 mL of the assay buffer in a reagent reservoir. […] The plates were set at room temperature for 30 min. The plates were read in a FLIPR^TETRA instrument (Molecular Devices, Sunnyvale, Calif.) at λex 488 nm and λem 514 nm to record baseline fluorescence following which 20 μL of test material at 1 mM or 100 μM final concentration for pure compounds in a GRAS library or 0.004% for extracts. For agonists, capsaicin 350 nM and AITC at 30 μM; and for controls, ionomycin 10 μM and buffer alone) was added to each well using the dispenser provided in the FLIPR. The data point was recorded every 2 seconds for a total of 10 min.
Average value for activation from three independent assay plates are presented as % of agonist value (AITC, 30 μM for TRPA1 and capsaicin, 350 nM for TRPV1. For TRPA1V1, we used AITC, 30 μM or capsaicin, 350 nM depending on if the compound is an A1 agonist or a V1 agonist. For compounds that activated both A1 and V1, we used AITC for normalization). Variation among triplicates was within 10% of each other. Assayed at 1 mM for pure compounds and 0.004% for extracts.

[3] = molecular target: T2, human TRPV1 (Homo sapiens, UniProt Q8NER1, M315I/T336M); test: Intracellular calcium (Fluo-4, FLIPR) activation of TRPV1 cells by GRAS compounds; assay type: cell-based; details: for activation at 1000 µM / activation at 100 µM: read-out: V1 activation, % of agonist value; for TRPV1 activation selectivity, in words: statement in description, see Table 1(i);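 as to all read-outs here: TRPV1-expressing cells, FLIPR fluorescence at 488/514 nm with baseline subtracted, sampled every 2 s for 10 min after adding compound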
T2 construct: expressed in transfected cells; pcDNA3 control cells
T2 sequence (Q8NER1 whole entry M315I/T336M): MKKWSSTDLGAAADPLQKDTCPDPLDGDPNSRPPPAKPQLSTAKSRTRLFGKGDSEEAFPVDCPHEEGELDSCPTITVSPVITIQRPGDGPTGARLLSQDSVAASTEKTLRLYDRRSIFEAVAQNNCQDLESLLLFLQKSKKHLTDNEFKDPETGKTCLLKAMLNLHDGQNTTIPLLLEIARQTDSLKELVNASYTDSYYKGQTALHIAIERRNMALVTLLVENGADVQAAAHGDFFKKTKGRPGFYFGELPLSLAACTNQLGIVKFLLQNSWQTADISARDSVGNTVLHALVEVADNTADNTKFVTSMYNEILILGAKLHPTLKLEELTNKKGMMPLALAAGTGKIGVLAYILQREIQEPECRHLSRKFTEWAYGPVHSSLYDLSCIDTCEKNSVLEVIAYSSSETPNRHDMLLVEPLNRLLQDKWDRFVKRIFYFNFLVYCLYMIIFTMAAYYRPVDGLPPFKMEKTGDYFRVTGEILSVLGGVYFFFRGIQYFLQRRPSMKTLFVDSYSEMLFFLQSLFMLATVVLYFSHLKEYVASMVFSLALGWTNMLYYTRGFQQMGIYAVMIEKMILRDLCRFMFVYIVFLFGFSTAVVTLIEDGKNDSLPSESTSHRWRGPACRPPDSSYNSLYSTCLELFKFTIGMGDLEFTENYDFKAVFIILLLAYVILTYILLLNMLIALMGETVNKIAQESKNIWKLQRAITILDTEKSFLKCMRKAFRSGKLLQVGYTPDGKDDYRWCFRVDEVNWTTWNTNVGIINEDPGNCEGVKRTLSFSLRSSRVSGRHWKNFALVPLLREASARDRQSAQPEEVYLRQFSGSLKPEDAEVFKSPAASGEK

[4] = Table 1(b), 1 mM, relative to AITC 30 μM
[5] = Table 1(i), 1 mM, relative to AITC 30 μM, […]
[6] = Table 1(i), 1 mM, relative to AITC 30 μM or capsaicin 350 nM depending on compound, […]
[7] = Table 1(i), 1 mM, relative to capsaicin 350 nM, […]
[8] = Table 1(a), 1 mM, relative to AITC 30 μM, average of three plates
[9] = Table 1(a), 1 mM, relative to capsaicin 350 nM, average of three plates
[10] = Table 1(b), 1 mM, relative to capsaicin 350 nM
[11] = Table 1(a), 100 μM (*), relative to AITC 30 μM
[12] = Table 1(c), 1 mM, relative to AITC 30 μM
[13] = Table 1(a), 100 μM (*), relative to capsaicin 350 nM

In the case of `CC(C)=CCC/C(C)=C/CO` [Geraniol], the activation at 1000 µM [1, 4] is reported as 82.5%, the “A1V1 activation, % of agonist value” [2] is reported as 63.93% and the activation at 1000 µM [3] is reported as 42.2%.
With `O=C(O)CC(O)C(=O)O` (stereo not shown) [Malic acid] the activation at 1000 µM [1, 5] was 1.9%, the “A1V1 activation, % of agonist value” [2, 6] was 2.4% and the activation at 1000 µM [3, 7] was 67.5%. The “TRPV1 activation selectivity, in words” value [3] was “TRPV1 activators which do not modulate TRPA1 or TRPA1V1”.
With `O=C(O)C(=O)Cc1ccccc1` [Phenylpyruvic acid] the activation at 1000 µM [1, 8] was 68%, the “A1V1 activation, % of agonist value” [2, 8] was 74.05% and the activation at 1000 µM [3, 9] was 32.5%.
For `CCCCCCCCC(=O)NCc1ccc(O)c(OC)c1` [Nonivamide, N-Vanillylnonanamide], the activation at 100 µM [1] was 69%, the “A1V1 activation, % of agonist value” ([2]; Table 1(g), 1 mM, relative to capsaicin 350 nM) was 135.6% and the “A1V1 activation, % of agonist value” ([2]; Table 1(i), 100 μM (*), relative to AITC 30 μM or capsaicin 350 nM depending on compound, values less than 20-25% considered inactive) was 1.2%. The activation at 100 µM [3] was 65.5% and the activation at 1000 µM [3] was 91.4%.
`COc1cc(C2OCC(C)O2)ccc1O` (stereo not shown) [Vanillin propylene glycol acetal] was tested, and the “A1 activation, % of agonist value” [1, 4] was 76.21%, the “A1V1 activation, % of agonist value” [2, 4] was 94.49% and the “V1 activation, % of agonist value” [3, 10] was 57.97%.
In the case of `CCC(C)COC(=O)CC(C)C` (stereo not shown) [2-Methylbutyl isovalerate], the activation at 1000 µM [1, 5] is reported as 1.7%, the “A1V1 activation, % of agonist value” [2, 6] is reported as 2.1% and the activation at 1000 µM [3, 7] is reported as 75.3%. For the same molecule, the “TRPV1 activation selectivity, in words” value [3] was “TRPV1 activators which do not modulate TRPA1 or TRPA1V1”.
For `COC(=O)C1CCCCC1` [Methyl cyclohexanecarboxylate], the activation at 1000 µM [1, 4] was 45.5%, the “A1V1 activation, % of agonist value” [2, 4] was 85.17% and the activation at 1000 µM [3, 10] was 69.5%.
For `O=Cc1ccc(O)cc1` [4-Hydroxybenzaldehyde], the activation at 100 µM [1, 11] was 80.4%, the activation at 1000 µM [1, 12] was 63% and the “A1V1 activation, % of agonist value” [2, 11] was 163.2%. For the same molecule, the “A1V1 activation, % of agonist value” [2, 12] was 60.3% and the activation at 100 µM [3, 13] was 123%.
`CC1COC(c2ccccc2)O1` (stereo not shown) [Benzaldehyde propylene glycol acetal] was tested, and the “A1 activation, % of agonist value” [1, 4] was 48.03%, the “A1V1 activation, % of agonist value” [2, 4] was 78.33% and the “V1 activation, % of agonist value” [3, 10] was 34.38%.
With `Sc1ccc2ccccc2c1` [2-Napthlaenthiol] the “A1 activation, % of agonist value” [1, 11] was 66.3%, the “A1V1 activation, % of agonist value” [2, 11] was 85.2% and the “V1 activation, % of agonist value” [3, 13] was 120.3%.
`CC(=O)OCc1ccc2c(c1)OCO2` [Piperonyl acetate] was tested, and the activation at 1000 µM [1] was 62.7%, the “A1V1 activation, % of agonist value” [2, 4] was 78.00% and the activation at 1000 µM [3] was 20.9%.
`C=CC(=O)CCCCC` [1-Octen-3-one] was tested, and the activation at 1000 µM [1, 8] was 118%, the “A1V1 activation, % of agonist value” [2, 8] was 98.9% and the activation at 1000 µM [3, 9] was 63.2%.
`CCCc1ccccc1O` [2-Propylphenol] was tested, and the activation at 1000 µM [1, 8] was 126%, the “A1V1 activation, % of agonist value” [2, 8] was 183.8% and the activation at 1000 µM [3, 9] was 96.9%.
`CCCCCC(=Cc1ccccc1)CO` [Alpha-Amylcinnamyl alcohol] was tested, and the activation at 1000 µM [1, 8] was 96.4%, the “A1V1 activation, % of agonist value” [2, 8] was 77.36% and the activation at 1000 µM [3, 9] was 21.1%.
In the case of `CCOC(=O)C(O)Cc1ccccc1` (stereo not shown) [Ethyl 2-hydroxy-3-phenylpropanoate], the activation at 1000 µM [1, 8] is reported as 95.6%, the “A1V1 activation, % of agonist value” [2, 8] is reported as 90.76% and the activation at 1000 µM [3, 9] is reported as 29.2%.
For `CC(C)=CCCC(C)=CCCC(C)=CC=O` [Farnesal], the “A1 activation, % of agonist value” [1, 8] was 97.58%, the “A1V1 activation, % of agonist value” [2, 8] was 104.4% and the “V1 activation, % of agonist value” [3, 9] was 41.22%.
`c1ccc2scnc2c1` [Benzothiazole] was tested, and the activation at 100 µM [1, 11] was 51.3%, the “A1V1 activation, % of agonist value” [2, 11] was 74.4% and the activation at 100 µM [3, 13] was 33.4%.
With `CCCCC/C=C\C/C=C\CCCCCCCC(=O)O` [Linoleic acid] the activation at 1000 µM [1, 8] was 170%, the “A1V1 activation, % of agonist value” [2, 8] was 170.4% and the activation at 1000 µM [3, 9] was 24.9%.
For `C=CCc1cccc(OC)c1O` [o-Eugenol], the “A1 activation, % of agonist value” [1, 8] was 128.4%, the “A1V1 activation, % of agonist value” [2, 8] was 158.3% and the “V1 activation, % of agonist value” [3, 9] was 64.5%.
`CCCOC(=O)c1ccc(O)cc1` [Propylparaben] was tested, and the activation at 1000 µM [1, 5] was 93.2%, the “TRPA1 activation selectivity, in words” value ([1]; statement in description, see Table 1(i)) was “TRPA1 activator which does not modulate TRPV1 or TRPA1V1” and the “A1V1 activation, % of agonist value” [2, 6] was 2.1%. For the same molecule, the activation at 1000 µM [3, 7] was 1.6%.
With `CCCCCC(=O)CCCC(=O)O` [5-Oxodecanoic acid] the activation at 1000 µM [1, 4] was 28.6%, the “A1V1 activation, % of agonist value” [2, 4] was 39.34% and the activation at 1000 µM [3, 10] was 53.4%.
For `CC(C)CCOC(=O)CCc1ccco1` [Isoamyl 3-(2-furan)propionate], the “A1 activation, % of agonist value” [1, 4] was 123.3%, the “A1V1 activation, % of agonist value” [2, 4] was 106.9% and the “V1 activation, % of agonist value” [3, 10] was 32.66%.
